Experiments:
[1] = test system: wild-type Plk4-GFP NIH/3T3 cells; assay: Centriole overduplication assay, NIH/3T3 overexpressing wild-type Plk4-GFP; assay type: cell-based, mouse
Description: For generation of Plk4-GFP inducible NIH/3T3 cells, a mouse Plk4 cDNA C-terminally fused to eGFP was cloned into the lentiviral vector pLVX-TRE3G (Clontech). The G95L point mutation was generated by Quikchange mutagenesis (Agilent Technologies). Plasmids were transfected into HEK-293T cells using the Lenti-X HTX packaging system (Clontech), following manufacturer's instructions. 48 hours after transfection, virus-containing culture supernatant was harvested and added to the growth medium of Tet-On 3G NIH/3T3 cells (Clontech)+8 μg/ml polybrene (EMD Millipore).
Centriole overduplication assay. Tet-On 3G NIH/3T3 cells (Clontech) stably transduced with GFP, Plk4-GFP or Plk4(G95L)-GFP were seeded onto coverslips in a 12-well plate at 30,000 cells/well. Transgene expression was induced with 1 μg/ml doxycycline. […] Treated cells were incubated for 40 hours, and then washed with PBS and fixed in 100% methanol (−20° C., 5 minutes). Fixed samples were stained for γ-tubulin and Cep192, and mounted onto slides. Image acquisition and deconvolution were performed on the DeltaVision system equipped with a 100×1.3 NA U-PlanApo objective. Subsequent image processing was performed in ImageJ.

HeLa cells [2] = assay: Analysis of mitosis, HeLa centrin-GFP H2B-RFP; assay type: cell-based, human; settings: centrosome-less HeLa cells
Description: Analysis of mitosis and daughter cell fate. […] Cells were seeded into 96-well cycloolefin plates at 5000 cells/well, 8-10 hours before imaging. Movies were acquired on the CV1000 with a 40×0.95 NA U-PlanApo objective. The imaging chamber was maintained at 37° C. and 5% CO2. Image acquisition and data analysis were performed using CellVoyager software. 20 fields/well were imaged. For HeLa and NIH/3T3 cells, 5×2 μm z-sections in the GFP (25% power, 125 ms, 30% gain) and RFP (25% power, 100 ms, 30% gain) channels were captured in each field, at 5-minute intervals for 24 hours. For RPE1 cells, 5×2 μm z-sections in the GFP (20% power, 100 ms, 30% gain) and RFP (25% power, 100 ms, 30% gain) channels were captured in each field, at 5-minute intervals for 8 hours. To track RPE1 daughter cell fate, imaging was then switched to 3×4 μm z-sections in the RFP channel only, at 10-minute intervals for 48 hours. Mitosis was measured from nuclear envelope breakdown to anaphase onset (or arrest). Results represent combined measurements of 100 mother cells per condition from 2-4 independent experiments.

SRPK1 = target: T1, SRPK1 (Homo sapiens, UniProt Q96SB4); assay: Radiometric kinase assay, off-target SRPK1; assay type: biochemical; settings: off-target from DiscoveRx kinome profiling
T1 construct: Reaction Biology (Malvern, Pa.), contract assay
Description: (§1) Aurora B and other radiometric kinase assays were performed by Reaction Biology (Malvern, Pa.). Kinome profiling of centrinone and centrinone-B was performed by DiscoveRx (San Diego, Calif.).

Plk4 = Plk4 intensity at centrosomes, HeLa; assay type: cell-based, human; settings: 125 nM, 8 hours
Source text: FIGS. 13A-13D. Centriole number set points arise from a dynamic equilibrium between centriole overduplication and removal of cells with extra centrioles. […] Yellow arrowheads mark centrin foci. Each frame was acquired at NEBD when the centrosomes are optimally distributed for counting. Times in the bottom left of each panel are in minutes relative to NEBD in the mother cell. Scale bar, 10 μm. (FIG. 13B) Histogram of mitotic outcomes for HeLa cells with <2, 2 or >2 centrosomes. The fates of daughter cells arising from 2-centrosome bipolar mitosis, multi-centrosome bipolar mitosis, and multi-centrosome multipolar mitosis are shown below. Data are mean+/−SD (N=2). […] Intervals are based on the time of NEBD in the mother cells. The diagonal line represents the 2:1 ratio expected under normal conditions; points above or below this line correspond to over- or under-duplication, respectively. […] Boxed regions are magnified 2.3× in panels below. Scale bar, […]. The Plk4 intensity at centrosomes was quantified and normalized to the intensity in untreated cells. Data are mean+/−SD (N=3).

NIH/3T3 cells [3] = assay: Microtubule regrowth assay, NIH/3T3; assay type: cell-based, mouse; settings: NIH/3T3, 5 minutes after washout
Description: Microtubule regrowth assay. […] Cells were seeded onto coverslips in 12-well plates and treated with 16 μM nocodazole for 4 hours to depolymerize microtubules. Wells were washed 6 times with PBS to remove the nocodazole, and fresh, pre-warmed medium was added to each well. After 5 minutes of recovery, cells were fixed with 100% methanol (−20° C., 5 minutes) and stained with antibodies against γ-tubulin and α-tubulin. Coverslips were mounted onto slides and imaged on a DeltaVision microscope (Applied Precision) with a 60×1.42 NA PlanApo objective and CoolSnap camera (Photometrics). Image deconvolution was performed in softWoRx (Applied Precision) and subsequent processing was performed in ImageJ (NIH).

NIH/3T3 cells [4] = assay: Cilia formation assay in NIH/3T3 cells; assay type: cell-based, mouse; settings: serum-starved NIH/3T3
Description: Cilia formation assay in NIH/3T3 cells. […] Cells were seeded onto coverslips and starved for 40 hours by replacing their media with DMEM+0.5% defined bovine serum. Cells were then washed with PBS, fixed with 100% methanol (−20° C., 5 minutes), stained with antibodies against γ-tubulin and IFT-88, and mounted onto slides. Image acquisition and deconvolution were performed on the DeltaVision system, as above. Subsequent image processing was performed in ImageJ.

HeLa cells [5] = assay: Quantification of centrosome numbers from fixed samples, HeLa; assay type: cell-based, human; settings: for foci of centriolar and pericentriolar material markers: centrinone treatment
Description: Quantification of centrosome numbers from fixed samples. Cells were seeded onto poly-D-lysine-coated coverslips (Neuvitro) in 12-well plates at least 8 hours before fixation. At the required timepoints for each experiment, cells were washed once with PBS and fixed in 100% methanol (−20° C., 5 minutes). Fixed cells were washed with PBS, blocked with PBS+4% BSA+0.1% Triton X-100, and stained with primary antibodies against γ-tubulin and Cep192, which localize to the pericentriolar material and proximal to the outer centriole wall, respectively (47, 48). Alexa488-labeled anti-mouse secondary antibody (against anti-γ-tubulin) and Alexa647-labeled anti-rabbit secondary antibody (against anti-Cep192) were both used at 1.5 jag/mL. Samples were mounted onto slides with Prolong Gold antifade reagent (Life Technologies). Images of fixed interphase cells were acquired on a Nikon Eclipse E800 with a 60×1.4 NA PlanApo objective and ORCA-ER camera (Hamamatsu) using Metamorph software (Molecular Devices). Quantification of foci was performed manually. A focus was defined as a bona-fide centrosome if it was positive for both γ-tubulin and Cep192 (true for >95% of foci).

ROS/ROS1 = ROS/ROS1 (Homo sapiens, UniProt P08922); assay: Radiometric kinase assay, off-target ROS/ROS1; assay type: biochemical; settings: off-target from DiscoveRx kinome profiling
Description: as §1

ROS/ROS1, sequence (P08922 28-2347): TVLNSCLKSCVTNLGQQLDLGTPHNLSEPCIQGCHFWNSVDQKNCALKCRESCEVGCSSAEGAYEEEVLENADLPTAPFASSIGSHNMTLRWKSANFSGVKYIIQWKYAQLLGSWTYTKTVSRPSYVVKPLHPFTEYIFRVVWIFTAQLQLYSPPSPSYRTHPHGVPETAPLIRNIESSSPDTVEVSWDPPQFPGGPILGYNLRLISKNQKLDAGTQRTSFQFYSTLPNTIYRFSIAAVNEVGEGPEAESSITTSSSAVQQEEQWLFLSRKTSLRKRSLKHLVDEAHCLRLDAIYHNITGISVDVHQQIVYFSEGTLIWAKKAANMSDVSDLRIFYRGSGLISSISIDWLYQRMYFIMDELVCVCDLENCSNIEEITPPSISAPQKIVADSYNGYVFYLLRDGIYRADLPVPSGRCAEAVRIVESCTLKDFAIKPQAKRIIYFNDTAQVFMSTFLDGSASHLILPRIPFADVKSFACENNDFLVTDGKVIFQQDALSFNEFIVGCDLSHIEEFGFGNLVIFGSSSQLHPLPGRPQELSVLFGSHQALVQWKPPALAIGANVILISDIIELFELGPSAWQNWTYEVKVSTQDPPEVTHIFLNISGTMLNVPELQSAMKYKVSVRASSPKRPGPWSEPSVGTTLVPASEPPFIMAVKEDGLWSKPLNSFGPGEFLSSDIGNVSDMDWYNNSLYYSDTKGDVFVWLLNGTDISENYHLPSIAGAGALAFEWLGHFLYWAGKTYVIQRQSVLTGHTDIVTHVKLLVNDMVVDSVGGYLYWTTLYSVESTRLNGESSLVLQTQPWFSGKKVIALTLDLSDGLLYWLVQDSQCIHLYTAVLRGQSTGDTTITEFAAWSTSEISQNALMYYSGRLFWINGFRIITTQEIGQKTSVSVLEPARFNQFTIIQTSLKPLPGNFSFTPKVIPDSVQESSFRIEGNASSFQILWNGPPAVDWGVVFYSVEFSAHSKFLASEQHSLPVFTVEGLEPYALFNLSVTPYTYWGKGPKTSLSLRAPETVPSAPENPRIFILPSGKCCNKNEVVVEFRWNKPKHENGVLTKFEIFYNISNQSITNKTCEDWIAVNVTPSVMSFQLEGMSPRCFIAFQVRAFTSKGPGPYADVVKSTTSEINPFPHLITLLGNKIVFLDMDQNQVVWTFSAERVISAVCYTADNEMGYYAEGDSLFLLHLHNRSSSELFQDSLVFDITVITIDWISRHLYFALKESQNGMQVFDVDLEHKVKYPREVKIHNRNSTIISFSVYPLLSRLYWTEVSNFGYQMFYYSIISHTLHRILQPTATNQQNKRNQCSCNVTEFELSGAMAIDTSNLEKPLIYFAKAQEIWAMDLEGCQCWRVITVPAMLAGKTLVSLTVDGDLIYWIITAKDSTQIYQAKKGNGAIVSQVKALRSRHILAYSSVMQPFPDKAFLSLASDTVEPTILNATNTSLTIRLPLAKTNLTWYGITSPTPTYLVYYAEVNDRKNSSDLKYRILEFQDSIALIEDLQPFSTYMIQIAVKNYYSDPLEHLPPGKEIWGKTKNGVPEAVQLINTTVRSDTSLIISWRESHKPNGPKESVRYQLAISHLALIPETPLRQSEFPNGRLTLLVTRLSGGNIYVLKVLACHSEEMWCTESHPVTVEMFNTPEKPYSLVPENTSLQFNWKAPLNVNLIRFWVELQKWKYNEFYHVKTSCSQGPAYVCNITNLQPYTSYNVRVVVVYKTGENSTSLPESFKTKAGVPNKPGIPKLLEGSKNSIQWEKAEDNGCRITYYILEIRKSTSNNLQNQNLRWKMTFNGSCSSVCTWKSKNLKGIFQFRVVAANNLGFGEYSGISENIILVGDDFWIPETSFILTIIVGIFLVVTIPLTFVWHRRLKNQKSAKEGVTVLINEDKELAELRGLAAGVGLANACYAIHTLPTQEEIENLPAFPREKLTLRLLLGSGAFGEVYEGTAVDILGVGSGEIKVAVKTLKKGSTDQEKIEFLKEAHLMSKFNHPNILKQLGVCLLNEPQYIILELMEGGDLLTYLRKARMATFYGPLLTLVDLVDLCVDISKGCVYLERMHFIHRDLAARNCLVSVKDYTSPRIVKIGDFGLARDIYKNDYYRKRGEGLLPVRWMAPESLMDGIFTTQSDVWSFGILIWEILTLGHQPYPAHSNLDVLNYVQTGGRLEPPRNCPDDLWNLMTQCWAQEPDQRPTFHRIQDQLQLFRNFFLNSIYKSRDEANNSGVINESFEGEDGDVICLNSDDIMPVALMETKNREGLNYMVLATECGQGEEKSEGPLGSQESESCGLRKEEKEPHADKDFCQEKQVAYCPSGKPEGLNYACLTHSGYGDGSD
T1 sequence (Q96SB4 whole entry): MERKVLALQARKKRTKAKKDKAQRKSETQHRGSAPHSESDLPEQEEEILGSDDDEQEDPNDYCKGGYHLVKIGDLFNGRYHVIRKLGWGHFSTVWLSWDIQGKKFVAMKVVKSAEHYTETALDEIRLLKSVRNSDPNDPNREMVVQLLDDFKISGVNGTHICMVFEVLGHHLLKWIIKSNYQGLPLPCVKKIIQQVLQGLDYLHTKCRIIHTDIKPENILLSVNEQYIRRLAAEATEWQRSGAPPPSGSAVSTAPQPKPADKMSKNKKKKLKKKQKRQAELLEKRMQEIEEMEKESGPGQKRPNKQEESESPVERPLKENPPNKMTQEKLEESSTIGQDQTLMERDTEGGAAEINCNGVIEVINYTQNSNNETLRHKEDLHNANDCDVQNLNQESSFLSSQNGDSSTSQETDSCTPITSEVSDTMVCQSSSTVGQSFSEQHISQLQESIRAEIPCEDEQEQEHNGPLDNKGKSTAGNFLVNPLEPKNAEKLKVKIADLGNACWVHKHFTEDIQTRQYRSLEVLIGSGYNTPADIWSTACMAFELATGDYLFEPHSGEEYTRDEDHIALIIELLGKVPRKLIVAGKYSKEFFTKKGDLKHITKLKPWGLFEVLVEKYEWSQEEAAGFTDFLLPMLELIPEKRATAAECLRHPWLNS

With `COc1c(Nc2cc(C)[nH]n2)nc(Sc2ccc(S(=O)(=O)Cc3cccc([N+](=O)[O-])c3F)cc2F)nc1N1CCOCC1` [Centrinone, 2-((2-fluoro-4-((2-fluoro-3-nitrobenzyl)sulfonyl)phenyl)thio)-5-methoxy-N-(5-methyl-1H-pyrazol-3-yl)-6-morpholinopyrimidin-4-amine] the centriole amplification [1] was “blocked centriole amplification”, the “cells undergoing persistent mitotic arrest” value (HeLa cells [2]) was 24% and the “increase in mitotic duration” value (HeLa cells [2]) was ~1 h. For the same molecule, the Ki (SRPK1) was > 150 nM, the “Plk4 level at the centrosome” value (Plk4) was “double” and the “microtubule organization after nocodazole washout” value (NIH/3T3 cells [3]) was “short microtubules form throughout the cytoplasm”. The primary cilia (NIH/3T3 cells [4]) was “prevents assembly of primary cilia”, the “centrosome number directly after washout from long-term treated cells” value (HeLa cells [5]; HeLa (also BT549, N1E-115-1)) was “initial wave of centrosome overduplication” and the “centrosome numbers after washout” value (HeLa cells [5]; HeLa, 10 days following washout) was “all cells exhibited normal centrosome numbers”. The “foci of centriolar and pericentriolar material markers” value (HeLa cells [5]; HeLa) was “loss of all markers from cells”, the “foci of centriolar and pericentriolar material markers” value (HeLa cells [5]; HeLa, listed as centrinone) was “most cells lacked centrioles/centrosomes” and the Ki (ROS/ROS1) was 2.77 nM.

From patent US10752612B2, “PLK4 inhibitors” (LUDWIG INSTITUTE FOR CANCER RESEARCH LTD, priority 2015, dated 2020)
